Data: patent US6352713B1, “Nutritional composition” (Drugtech Corporation, priority 1999, dated 2002)

Experiments:
[1] = pH of the solution/suspension of a composition in deionized water; type: physicochemical; conditions: ascorbic acid/calcium carbonate mixtures; amount equivalent to 50 mg ascorbic acid in 25 ml deionized water, stirred ten minutes
Description: As discussed herein, the pH of the present composition is measured by any suitable means well known to persons of ordinary skill in the art. […] Another non-limiting exemplary technique for measuring the pH of a dosage form is to use a glass mortar and pestle to grind one tablet until a finely divided uniform powder is obtained. The finely divided uniform powder is then added to an appropriate vessel and the pH is then determined as in manner of the preceding example.
To the beaker was added 25 ml of deionized water. The contents of the beaker were then vigorously stirred for ten minutes. The pH of the resultant solution/suspension was then measured.
To the beaker was added 25 ml of deionized water. The contents were then vigorously stirred for ten minutes. The pH of the resultant solution/suspension was then measured.
In comparison, a conventional chewable prenatal supplement containing 1000 IU of vitamin A, 400 IU of vitamin D3, 11 IU of vitamin E, 120 mg of vitamin C, 1 mg of folic acid, 2 mg of vitamin B1, 3 mg of riboflavin, 20 mg of niacin, 10 mg of vitamin B6, 12 mcg of vitamin B12 and 29 mg of iron was obtained. […] To the beaker was added 25 ml of deionized water. The contents were then vigorously stirred for ten minutes or until dissolved. The pH of the resultant solution/suspension was then measured.

[2] = cited from earlier work

Row | pH Value [1] | SMILES | share of dietary folic acid available to the body (bioavailability) [2]
1 | 3.32 | O=C1O[C@H]([C@@H](O)CO)C(O)=C1O [Ascorbic Acid] | –
2 | – | Nc1nc2ncc(CNc3ccc(C(=O)N[C@@H](CCC(=O)O)C(=O)O)cc3)nc2c(=O)[nH]1 [Folic acid, pteroylglutamic acid] | about half
